What was measured:
ABCA1 [1] = assay: qRT-PCR of ABCA1 expression in J774.1 macrophages; assay type: cell-based, murine; settings: FIG. 3C
Protocol: (§1) Incorporation of LXR agonist into sHDL is the first and most important step for all subsequent studies. Phospholipids, apoA-I mimetic peptide (22A) and LXR agonist TO901317 (TO) were hydrated in an aqueous solution and the sHDL nanoparticles were formed after 3 cycles of thermal cycling between 25 and 50° C. (see, e.g., Di Bartolo, B. A.; et al., Atherosclerosis 2011, 217 (2), 395-400; Dasseux, J.-L. Peptide/lipid complex formation by co-lyophilization. 2001). The homogeneity of the size distribution was confirmed by gel permeation chromatography (GPC) and scanning electron microscopy (SEM) (FIG. 3A-B). The average particle size of sHDL was 6-14 nm (e.g., 8-10 nm) as determined by dynamic light scattering using a Malvern Nanosizer. […]
(§2) In macrophages, LXRs control transcription of several genes involved in the cholesterol efflux pathway, including ABCA1 and ABCG1. To examine the ability of TO901317-encapsulated sHDL particles to activate LXR-target genes, J774.1 murine macrophage cells were incubated with sHDL blank particles or TO901317-encapsulated sHDL particles (TO901317 at 10^−6M) for 4 hours and the expression of both genes were measured using quantitative real-time PCR (qRT-PCR). […] The resulting cDNA was amplified with appropriate primers using power SYBR Green PCR Master Mix and analyzed on a CFX real-time PCR system (Bio-Rad). […]

[2] = Plasma lipids in C57BL/6J mice; assay type: in vivo; settings: TO901317 0.5, 1.5, 10 mg/kg intraperitoneal, 24 hours later, FIG. 8
Protocol: (§3) FIGS. 8A and 8B show the effects of TO901317-encapsulated sHDL particles on plasma lipids in C57BL/6J Mice. C57BL/6J wild type mice were divided into 8 groups and treated with DMSO, TO901317 at 0.5 mg/kg, TO901317 at 1.5 mg/kg, TO901317 at 10 mg/kg, or sHDL blank particles, TO901317-encapsulated sHDL particles with TO901317 at 0.5 mg/kg, TO901317-encapsulated sHDL particles with TO901317 at 1.5 mg/kg, TO901317-encapsulated sHDL particles with TO901317 at 10 mg/kg via intraperitoneal injection. Twenty-four hours later, collected plasma and liver tissues were stored at −80° C. until processed. Direct LDL-cholesterol (LDL-c), direct HDL-cholesterol (HDL-c), and enzymatic-colorimetric assays used to determine plasma total cholesterol (TC) and triglycerides (TG) were carried out at the Chemistry Laboratory of the Michigan Diabetes Research and Training Center.

ABCG1 [3] = assay: qRT-PCR of ABCG1 in blood monocytes of treated apoE−/− mice; assay type: in vivo; settings: 1.5 mg/kg TO901317 i.p., three times per week, 6 weeks, FIG. 11
Protocol: (§4) The effect of TO901317-encapsulated sHDL on target gene expression in monocytes from apoE^−/− mice was also investigated. Six-week-old male apoE^−/− mice were place on atherogenic high fat diet (HFD) for 12 weeks to induce atherosclerotic lesion formation. Mice were randomly divided into five groups, and each group was treated with intraperitoneal injections of the following regimens with an equivalent dose of 1.5 mg/kg entrapped TO901317: 1) PBS, 2) DMSO, 3) TO901317 dissolved in dimethyl sulfoxide (DMSO) (free TO901317), 4) sHDL nanoparticles, or 5) TO901317-encapsulated sHDL particles. The mice were treated for 6 weeks (three times per week, on Monday, Wednesday and Friday). The monocytes from the blood were isolated and the expression of ABCA1 and ABCG1 was detected by qRT-PCR as described in FIG. 5.

ABCG1 [4] = assay: qRT-PCR of ABCG1 expression in J774.1 macrophages; assay type: cell-based, murine; settings: FIG. 3D
Protocol: as §1, §2

[5] = Plasma lipids in apoE-deficient mice; assay type: in vivo; settings: apoE-deficient mice on HFD, i.p., three times per week, 6 weeks, FIG. 22
Protocol: Six-week-old male apoE^−/− mice were place on HFD for 6 weeks to induce atherosclerotic lesion formation. Mice were randomized into 5 groups and received intraperitoneal injection with 1) PBS, 2) DMSO, 3) CD3254 dissolved in dimethyl sulfoxide (DMSO) (free CD3254, at 0.1 mg/kg), 4) sHDL nanoparticles, or 5) CD3254-encapsulated sHDL particles with a dose of 0.1 mg/kg of CD3254. The mice were treated for 6 weeks (three times per week, on Monday, Wednesday and Friday). Direct LDL-cholesterol (LDL-c), direct HDL-cholesterol (HDL-c), and enzymatic-colorimetric assays used to determine plasma total cholesterol (TC) and triglycerides (TG) were carried out at the Chemistry Laboratory of the Michigan Diabetes Research and Training Center.

SREBP1c [6] = assay: qRT-PCR of SREBP1c in the liver of apoE−/− mice; assay type: in vivo; settings: liver tissues from FIG. 12, FIG. 13
Protocol: (§5) Six-week-old male apoE^−/− mice were place on atherogenic high fat diet (HFD) for 12 weeks to induce atherosclerotic lesion formation. Mice were randomly divided into five groups, and each group was treated with intraperitoneal injections of the following regimens with an equivalent dose of 1.5 mg/kg entrapped TO901317: 1) PBS, 2) DMSO, 3) TO901317 dissolved in dimethyl sulfoxide (DMSO) (free TO901317), 4) sHDL nanoparticles, or 5) TO901317-encapsulated sHDL particles. The mice were treated for 6 weeks (three times per week, on Monday, Wednesday and Friday). Liver tissue triglyceride concentrations were measured using a Triglyceride Quantification Kit (Cayman). Fifty mg of liver was homogenized in a 5% NP-40 buffer, and assay was performed according to manufacturer's directions.
LXR ligands have been implicated in triggering induction of the lipogenic pathway via activation of SREBP-1c in the liver, which leads to the adverse effects of steatosis and hypertriglyceridemia. The liver tissues from FIG. 12 were used to detect the expression of SREBP1c and Fatty acid synthase (FAS) using qRT-PCR as described in FIG. 5.

[7] = Liver tissue triglyceride in apoE−/− mice; assay type: in vivo; settings: 1.5 mg/kg TO901317 i.p., three times per week, 6 weeks, FIG. 12
Protocol: as §5

ABCA1 [8] = assay: qRT-PCR of ABCA1 in blood monocytes of treated apoE−/− mice; assay type: in vivo; settings: 1.5 mg/kg TO901317 i.p., three times per week, 6 weeks, FIG. 11
Protocol: as §4

SREBP1c [9] = assay: qRT-PCR of SREBP1c expression in the liver of C57BL/6J mice; assay type: in vivo; settings: liver tissues from FIG. 8, FIG. 9
Protocol: To visualize whether sHDL can deliver its cargo to the plaque efficiently, a lipophilic near-infrared fluorescent dye, DiD, was incorporated into sHDL. […] The DiD-labeled sHDL nanoparticles were administrated by tail vein injection at a dose of 100 μg DiD and 10 mg/Kg sHDL to a murine atherosclerosis model. 24 hours post injection, animals were sacrificed and aortas were removed. DiD fluorescence associated with aortas were analyzed using the Xenogen IVIS optical imaging system. […] The side effects of different LXR agonist formulations were assessed.
as §3, with “Direct LDL-cholesterol (LDL-c), direct HDL-cholesterol (HDL-c), and enzymatic-colorimetric assays used to determine plasma total cholesterol (TC) and triglycerides (TG) were carried out at the Chemistry Laboratory of the Michigan Diabetes Research and Training Center.” left out

plasma TG levels [2]: significantly elevated
plasma TG levels [5]: significantly elevated
expression of SREBP1c in the liver (qRT-PCR) (SREBP1c [6]): activated SREBP1c
expression of SREBP1c in the liver (qRT-PCR) (SREBP1c [9]): activated SREBP1c
Compound: O=S(=O)(c1ccccc1)N(CC(F)(F)F)c1ccc(C(O)(C(F)(F)F)C(F)(F)F)cc1 [TO901317]
ABCA1 expression (qRT-PCR) (ABCA1 [1]): upregulated
ABCG1 expression in monocytes (qRT-PCR) (ABCG1 [3]): activated the expression
ABCG1 expression (qRT-PCR) (ABCG1 [4]): upregulated
triglyceride accumulation in the liver [7]: significantly induced the accumulation of triglyceride
ABCA1 expression in monocytes (qRT-PCR) (ABCA1 [8]): activated the expression

Source: US11642419B2, “Compositions and methods for treating cardiovascular related disorders” (The Regents of the University of Michigan, priority 2015, dated 2023)
